Experimental data as given in PubChem BioAssay AID1963960 (Molecular Pharmacology Branch, DTP, NCI, 2024).
Several values for one entry are separate records, joined by “and”; a condition that tells them apart may be missing. Equal values may be shown once.

Tested on: MDA-MB-468 spheroids with HUVEC/MSC, viability
Test: Anticancer human tumor MDA-MB-468 cell line growth inhibition [PI3K];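 also: spheroids exposed to agents for seven days before readout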;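 as to viability, T/C: 100% = DMSO vehicle control viability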
Conditions: for viability, T/C: stronger effect = lower value
Outline: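 Combination activity was assessed by viability in multicellular tumor spheroids carrying HUVEC and MSC components. Agents were tested with PI3K inhibitors from a Cmax-based top dose (or 10 microM) downward in half-log increments.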

[1] = curve of first compound, second compound 0.00316 µM
[2] = curve of first compound, second compound 0.01 µM
[3] = curve of first compound, second compound 0.0316 µM
[4] = curve of first compound, second compound 0.1 µM
[5] = curve of first compound, second compound 0.316 µM
[6] = curve of first compound, second compound 1 µM
[7] = second compound 0.00316 µM, first compound 0.000316 µM
[8] = second compound 0.00316 µM, first compound 0.001 µM
[9] = second compound 0.00316 µM, first compound 0.00316 µM
[10] = second compound 0.00316 µM, first compound 0.01 µM
[11] = second compound 0.00316 µM, first compound 0.0316 µM
[12] = second compound 0.00316 µM, first compound 0.1 µM
[13] = second compound 0.01 µM, first compound 0.000316 µM
[14] = second compound 0.01 µM, first compound 0.001 µM
[15] = second compound 0.01 µM, first compound 0.00316 µM
[16] = second compound 0.01 µM, first compound 0.01 µM
[17] = second compound 0.01 µM, first compound 0.0316 µM
[18] = second compound 0.01 µM, first compound 0.1 µM
[19] = second compound 0.0316 µM, first compound 0.000316 µM
[20] = second compound 0.0316 µM, first compound 0.001 µM
[21] = second compound 0.0316 µM, first compound 0.00316 µM
[22] = second compound 0.0316 µM, first compound 0.01 µM
[23] = second compound 0.0316 µM, first compound 0.0316 µM
[24] = second compound 0.0316 µM, first compound 0.1 µM
[25] = second compound 0.1 µM, first compound 0.000316 µM
[26] = second compound 0.1 µM, first compound 0.001 µM
[27] = second compound 0.1 µM, first compound 0.00316 µM
[28] = second compound 0.1 µM, first compound 0.01 µM
[29] = second compound 0.1 µM, first compound 0.0316 µM
[30] = second compound 0.1 µM, first compound 0.1 µM
[31] = second compound 0.316 µM, first compound 0.000316 µM
[32] = second compound 0.316 µM, first compound 0.001 µM
[33] = second compound 0.316 µM, first compound 0.00316 µM
[34] = second compound 0.316 µM, first compound 0.01 µM
[35] = second compound 0.316 µM, first compound 0.0316 µM
[36] = second compound 0.316 µM, first compound 0.1 µM
[37] = second compound 1 µM, first compound 0.000316 µM
[38] = second compound 1 µM, first compound 0.001 µM
[39] = second compound 1 µM, first compound 0.00316 µM
[40] = second compound 1 µM, first compound 0.01 µM
[41] = second compound 1 µM, first compound 0.0316 µM
[42] = second compound 1 µM, first compound 0.1 µM
[43] = second compound 0.00316 µM, first compound 0.316 µM
[44] = second compound 0.00316 µM, first compound 1 µM
[45] = second compound 0.00316 µM, first compound 3.16 µM
[46] = second compound 0.00316 µM, first compound 10 µM
[47] = second compound 0.01 µM, first compound 0.316 µM
[48] = second compound 0.01 µM, first compound 1 µM
[49] = second compound 0.01 µM, first compound 3.16 µM
[50] = second compound 0.01 µM, first compound 10 µM
[51] = second compound 0.0316 µM, first compound 0.316 µM
[52] = second compound 0.0316 µM, first compound 1 µM
[53] = second compound 0.0316 µM, first compound 3.16 µM
[54] = second compound 0.0316 µM, first compound 10 µM
[55] = second compound 0.1 µM, first compound 0.316 µM
[56] = second compound 0.1 µM, first compound 1 µM
[57] = second compound 0.1 µM, first compound 3.16 µM
[58] = second compound 0.1 µM, first compound 10 µM
[59] = second compound 0.316 µM, first compound 0.316 µM
[60] = second compound 0.316 µM, first compound 1 µM
[61] = second compound 0.316 µM, first compound 3.16 µM
[62] = second compound 0.316 µM, first compound 10 µM
[63] = second compound 1 µM, first compound 0.316 µM
[64] = second compound 1 µM, first compound 1 µM
[65] = second compound 1 µM, first compound 3.16 µM
[66] = second compound 1 µM, first compound 10 µM

## Cn1ncnc1[C@H]1c2n[nH]c(=O)c3cc(F)cc(c23)N[C@@H]1c1ccc(F)cc1 + COc1c(OCCCN2CCOCC2)ccc2c3n(c(=NC(=O)c4cnc(N)nc4)nc12)CCN3
[1]
  IC50: > 100 nM
[2]
  IC50: > 100 nM
[3]
  IC50: 83.4 nM
[4]
  IC50: 23.1 nM
[5]
  IC50: < 0.316 nM
[6]
  IC50: < 0.316 nM
[7]
  viability, T/C: 103%
[8]
  viability, T/C: 89%
[9]
  viability, T/C: 83.8%
[10]
  viability, T/C: 79.1%
[11]
  viability, T/C: 69.4%
[12]
  viability, T/C: 57.9%
[13]
  viability, T/C: 79.7%
[14]
  viability, T/C: 89.8%
[15]
  viability, T/C: 92%
[16]
  viability, T/C: 74.7%
[17]
  viability, T/C: 70.5%
[18]
  viability, T/C: 50.1%
[19]
  viability, T/C: 75.9%
[20]
  viability, T/C: 84.6%
[21]
  viability, T/C: 70.2%
[22]
  viability, T/C: 67.1%
[23]
  viability, T/C: 57.6%
[24]
  viability, T/C: 48.4%
[25]
  viability, T/C: 60.8%
[26]
  viability, T/C: 65.1%
[27]
  viability, T/C: 63.4%
[28]
  viability, T/C: 55.3%
[29]
  viability, T/C: 48%
[30]
  viability, T/C: 34.7%
[31]
  viability, T/C: 29.5%
[32]
  viability, T/C: 27.4%
[33]
  viability, T/C: 26.4%
[34]
  viability, T/C: 26.9%
[35]
  viability, T/C: 26.7%
[36]
  viability, T/C: 17.5%
[37]
  viability, T/C: 3.21%
[38]
  viability, T/C: 2.83%
[39]
  viability, T/C: 2.99%
[40]
  viability, T/C: 4.15%
[41]
  viability, T/C: 3.68%
[42]
  viability, T/C: 2.25%

## C[C@@H](NC(=O)c1ncnc(N)c1Cl)c1ncc(C(=O)Nc2cc(C(F)(F)F)c(Cl)cn2)s1 + COc1c(OCCCN2CCOCC2)ccc2c3n(c(=NC(=O)c4cnc(N)nc4)nc12)CCN3
[1]
  IC50: > 10000 nM
[2]
  IC50: > 10000 nM
[3]
  IC50: > 10000 nM
[4]
  IC50: > 10000 nM
[5]
  IC50: < 31.6 nM
[6]
  IC50: < 31.6 nM
[11]
  viability, T/C: 83.1%
[12]
  viability, T/C: 91.9%
[43]
  viability, T/C: 93.5%
[44]
  viability, T/C: 96.2%
[45]
  viability, T/C: 86.4%
[46]
  viability, T/C: 76.4%
[17]
  viability, T/C: 87%
[18]
  viability, T/C: 101%
[47]
  viability, T/C: 87.4%
[48]
  viability, T/C: 101%
[49]
  viability, T/C: 99.7%
[50]
  viability, T/C: 71.4%
[23]
  viability, T/C: 79.7%
[24]
  viability, T/C: 79.2%
[51]
  viability, T/C: 91.6%
[52]
  viability, T/C: 75.9%
[53]
  viability, T/C: 74.5%
[54]
  viability, T/C: 61.6%
[29]
  viability, T/C: 51.1%
[30]
  viability, T/C: 52.5%
[55]
  viability, T/C: 57.5%
[56]
  viability, T/C: 66.6%
[57]
  viability, T/C: 59.9%
[58]
  viability, T/C: 56.6%
[35]
  viability, T/C: 28.3%
[36]
  viability, T/C: 27.8%
[59]
  viability, T/C: 30%
[60]
  viability, T/C: 37.3%
[61]
  viability, T/C: 36.3%
[62]
  viability, T/C: 31.9%
[41]
  viability, T/C: 5.16%
[42]
  viability, T/C: 4.86%
[63]
  viability, T/C: 5.09%
[64]
  viability, T/C: 7.06%
[65]
  viability, T/C: 7.47%
[66]
  viability, T/C: 5.33%

## C=CC(=O)N1CCN(c2nc(=O)n(-c3c(C)ccnc3C(C)C)c3nc(-c4c(O)cccc4F)c(F)cc23)C(C)C1 (centres undefined)
Compound 0.0316 µM
  viability, T/C: 94.1% [middle of 4 runs]
Compound 0.1 µM
  viability, T/C: 96.2% [middle of 4 runs]
Compound 1 µM
  viability, T/C: 107% (2×) and 89.3% and 105%
Compound 3.16 µM
  viability, T/C: 101% [middle of 4 runs]
Compound 10 µM
  viability, T/C: 78.6% [middle of 4 runs]
Curve of compound
  IC50: > 10000 nM

## CC(C)n1nc(-c2ccc3oc(N)nc3c2)c2c(N)ncnc21 + CC(Nc1ccc2c(c1)OCCn1cc(N3C(=O)OCC3C(F)F)nc1-2)C(N)=O
[1]
  IC50: 48.5 nM
[2]
  IC50: 41.8 nM
[3]
  IC50: 38.5 nM
[4]
  IC50: 36.7 nM
[5]
  IC50: 31.2 nM
[6]
  IC50: 23 nM
[7]
  viability, T/C: 89.9%
[8]
  viability, T/C: 100%
[9]
  viability, T/C: 91.8%
[10]
  viability, T/C: 92.6%
[11]
  viability, T/C: 69.5%
[12]
  viability, T/C: 16.7%
[13]
  viability, T/C: 95.1%
[14]
  viability, T/C: 96.8%
[15]
  viability, T/C: 88%
[16]
  viability, T/C: 99%
[17]
  viability, T/C: 59.2%
[18]
  viability, T/C: 21.1%
[19]
  viability, T/C: 100%
[20]
  viability, T/C: 94.8%
[21]
  viability, T/C: 77.4%
[22]
  viability, T/C: 83%
[23]
  viability, T/C: 58.5%
[24]
  viability, T/C: 15%
[25]
  viability, T/C: 103%
[26]
  viability, T/C: 82.4%
[27]
  viability, T/C: 87.8%
[28]
  viability, T/C: 82.3%
[29]
  viability, T/C: 54.2%
[30]
  viability, T/C: 11.8%
[31]
  viability, T/C: 87.2%
[32]
  viability, T/C: 82.8%
[33]
  viability, T/C: 87.6%
[34]
  viability, T/C: 84.9%
[35]
  viability, T/C: 49.6%
[36]
  viability, T/C: 12.7%
[37]
  viability, T/C: 105%
[38]
  viability, T/C: 80.8%
[39]
  viability, T/C: 75.2%
[40]
  viability, T/C: 70.8%
[41]
  viability, T/C: 46.6%
[42]
  viability, T/C: 12.3%

## CC1(C)CCC(Nc2ncc(C(F)(F)F)c(-c3c[nH]c4c(P(C)(C)=O)c(C#N)ccc34)n2)CN1 (centres undefined) + COc1c(OCCCN2CCOCC2)ccc2c3n(c(=NC(=O)c4cnc(N)nc4)nc12)CCN3
[1]
  IC50: < 31.6 nM
[2]
  IC50: < 31.6 nM
[3]
  IC50: < 31.6 nM
[4]
  IC50: < 31.6 nM
[5]
  IC50: < 31.6 nM
[6]
  IC50: < 31.6 nM
[11]
  viability, T/C: 9.69%
[12]
  viability, T/C: 8.09%
[43]
  viability, T/C: 7.16%
[44]
  viability, T/C: 7.44%
[45]
  viability, T/C: 6.56%
[46]
  viability, T/C: 1.22%
[17]
  viability, T/C: 8.56%
[18]
  viability, T/C: 7.53%
[47]
  viability, T/C: 6.69%
[48]
  viability, T/C: 6.66%
[49]
  viability, T/C: 6.59%
[50]
  viability, T/C: 1.41%
[23]
  viability, T/C: 8.31%
[24]
  viability, T/C: 8.47%
[51]
  viability, T/C: 7.44%
[52]
  viability, T/C: 6.08%
[53]
  viability, T/C: 6.49%
[54]
  viability, T/C: 1.91%
[29]
  viability, T/C: 9.69%
[30]
  viability, T/C: 8.3%
[55]
  viability, T/C: 7.97%
[56]
  viability, T/C: 6.87%
[57]
  viability, T/C: 6%
[58]
  viability, T/C: 2.2%
[35]
  viability, T/C: 8.16%
[36]
  viability, T/C: 6.87%
[59]
  viability, T/C: 6.83%
[60]
  viability, T/C: 5.84%
[61]
  viability, T/C: 4.35%
[62]
  viability, T/C: 1.03%
[41]
  viability, T/C: 4.03%
[42]
  viability, T/C: 3.59%
[63]
  viability, T/C: 3.45%
[64]
  viability, T/C: 4.91%
[65]
  viability, T/C: 3.08%
[66]
  viability, T/C: 0.82%
